The text below walks through data of patent publication US20230255955A1, “AMELIORATING AGENT OR PROPHYLACTIC AGENT FOR MUSCLE WEAKNESS SYMPTOM IN DISEASE OR SYNDROME ASSOCIATED WITH METABOLIC DISORDER” (Toray Industries, Inc., priority 2020, published 2023).

One experiment relates to cancer cachexia patients. The note with it: cited from earlier work.
A further experiment deals with SAMP8 mice. As to the kind of experiment: Gripping force of the forelimb (grip test activity meter) in senescence-accelerated model. Format: in vivo, mouse. Particulars: oral, every day for 28 days, 0.125 mg/kg and 0.25 mg/kg (both doses), 28th day, vs distilled water administered group, Williams' test P<0.05. The method, then:
On senescence-accelerated models, SAMP8 mice, an ameliorating action on a muscle weakness by administering (−)-17-(cyclopropylmethyl)-3,14β-dihydroxy-4,5α-epoxy-6β-[N-methyl-trans-3-(3-furyl)acrylamide]morphinan hydrochloride (compound 1) produced in accordance with International Publication No. WO 93/015081 was evaluated. […] For this reason, an evaluation of an ameliorating effect and a prophylactic effect on the muscle weakness symptom is considered to be possible.
For the evaluation of drug efficacy, 7-week old male SAMP8/TaSlc mice (Japan SLC, Inc.) were purchased, then kept for 9 months and used for the test. For the total of 3 days from 3 days to 1 day before administration of the test substance, a gripping force of the forelimb was measured using a grip test activity meter, an average value of the 3 days was calculated, and then the mice were grouped in such a way that the average of muscle strengths in each group was equal. To clarify that the model is a muscle weakness model, a control of a senescence-accelerated model animal was set. […]
Compound 1 was orally administered to SAMP8 mice every day for 28 days. […] Using a grip test activity meter, the muscle strength was evaluated by measuring a gripping force of the forelimb on 28th day after starting administration of compound 1 (last day of the administration). […]

For experiment [1], the system named is malignant tumor model animals obtained by transplanting A549 cells to nude mice. As to the kind of experiment: Gripping force of the forelimb (grip test activity meter) in malignant tumor model. Format: in vivo, mouse. The note with it: oral, every day for 28 days, 0.125 mg/kg and 0.25 mg/kg (both doses), 28th day. The method, then: (§1) On malignant tumor model animals obtained by transplanting A549 cells, adenocarcinomic human alveolar basal epithelial cells, to nude mice, an ameliorating action on a muscle weakness by administering (−)-17-(cyclopropylmethyl)-3,14β-dihydroxy-4,5α-epoxy-6β-[N-methyl-trans-3-(3-furyl)acrylamide]morphinan hydrochloride (hereinafter, compound 1) produced in accordance with International Publication No. WO 93/015081 was evaluated. […] For this reason, an evaluation of an ameliorating effect and a prophylactic effect on the muscle weakness symptom is considered to be possible.
(§2) A549 cell subculture was carried out using 10% FBS-containing RPMI 1640 medium. For an evaluation of drug efficacy, 7-week old female BALB/C slc/nu/nu mice (Japan SLC, Inc.) were purchased, acclimated for 1 week and then used. The malignant tumor model animal was created as follows. […] The tumor volume was determined by measuring a tumor diameter using a digital vernier caliper by the following calculating formula. […]
(§3) 43rd to 70th days from cell transplantation, compound 1 was orally administered every day to the malignant tumor model animals for 28 days. […] Using a grip test activity meter (Muromachi Kikai Co., Ltd.), a muscle strength was evaluated by measuring a gripping force of the forelimb on 28th day after starting administration of compound 1 (last day of the administration). […]

The next experiment concerns A549 cells. As to the kind of experiment: Tumor volume in malignant tumor model (A549 cells transplanted to nude mice). It is filed as in vivo, mouse. Particulars: oral, every day for 28 days, 0.125 mg/kg and 0.25 mg/kg (both doses); tumor volume on 28th day; vs distilled water administered group. The method, then: as §1, §2, §3

Where a name gives a salt, the structure may show the parent alone.

Take `CN(C)N(C)C(=O)[C@@]1(Cc2ccccc2)CCCN(C(=O)[C@@H](Cc2c[nH]c3ccccc23)NC(=O)C(C)(C)N)C1` [Anamorelin]: in the experiment on cancer cachexia patients, the “ameliorating action on a muscle weakness symptom (physical function)” value is recorded as “does not show an ameliorating action on a muscle weakness symptom” and the lean body mass entry is on record as “increases a lean body mass”.
As for `CN(C(=O)/C=C/c1ccoc1)[C@@H]1CC[C@@]2(O)[C@H]3Cc4ccc(O)c5c4[C@@]2(CCN3CC2CC2)[C@H]1O5` [compound 1, (−)-17-(cyclopropylmethyl)-3,14β-dihydroxy-4,5α-epoxy-6β-[N-methyl-trans-3-(3-furyl)acrylamide]morphinan hydrochloride], the “increasing action on the gripping force (muscle strength)” value is “statistically remarkable increasing action on the gripping force (muscle strength)” with SAMP8 mice and “statistically remarkable increasing action on the gripping force (muscle strength)” in experiment [1] (vs distilled water administered group, Dunnett's test P<0.05). Further, the “gripping force (muscle strength) compared with the model control group” value in experiment [1] is recorded as “ameliorated to the extent that is equal to the gripping force (muscle strength) of the model control group”. In addition, the “suppressing action on the tumor volume increase” value with A549 cells is given as “did not show any suppressing action on the tumor volume increase”.
Turning to `C[C@](O)(COc1ccc(C#N)cc1)C(=O)Nc1ccc(C#N)c(C(F)(F)F)c1` [enobosarm], in the experiment with cancer cachexia patients, the “ameliorating action on a muscle weakness symptom (physical function)” value is “the effect thereof is not acknowledged” and the lean body mass result is reported as “increases a lean body mass”.
